Reference: PubChem BioAssay AID1259407 (Chemical Carcinogenesis Research Information System (CCRIS), 2018)
The source made the active and inactive calls. How the calls were made is not given here.

System: CCRIS mutagenicity, Ames/micronucleus/aberration tests
Assay: CCRIS mutagenicity studies
[1] = Test System: AMES SALMONELLA TYPHIMURIUM, Strain/Indicator: TA98, Metabolic Activation: NONE, Method: PREINCUBATION
[2] = Test System: AMES SALMONELLA TYPHIMURIUM, Strain/Indicator: TA98, Metabolic Activation: RAT, LIVER, S-9, AROCLOR 1254, Method: STANDARD PLATE
[3] = Test System: AMES SALMONELLA TYPHIMURIUM, Strain/Indicator: TA100, Metabolic Activation: NONE, Method: PREINCUBATION
[4] = Test System: AMES SALMONELLA TYPHIMURIUM, Strain/Indicator: TA100, Metabolic Activation: NONE, Method: STANDARD PLATE
[5] = Test System: AMES SALMONELLA TYPHIMURIUM, Strain/Indicator: TA100, Metabolic Activation: RAT, LIVER, S-9, AROCLOR 1254, Method: STANDARD PLATE
[6] = Test System: AMES SALMONELLA TYPHIMURIUM, Strain/Indicator: TA104, Metabolic Activation: NONE, Method: PREINCUBATION
[7] = Test System: AMES SALMONELLA TYPHIMURIUM, Strain/Indicator: TA1535, Metabolic Activation: NONE, Method: PREINCUBATION
[8] = Test System: AMES SALMONELLA TYPHIMURIUM, Strain/Indicator: TA1535, Metabolic Activation: RAT, LIVER, S-9, AROCLOR 1254, Method: STANDARD PLATE
[9] = Test System: AMES SALMONELLA TYPHIMURIUM, Strain/Indicator: TA98, Metabolic Activation: NONE, Method: STANDARD PLATE

In the case of `O=C/C=C/C=C/C=O`, the mutagenic call (Test System: AMES SALMONELLA TYPHIMURIUM, Strain/Indicator: TA97, Metabolic Activation: NONE, Method: PREINCUBATION) is reported as “inactive; negative”, the mutagenic call (Test System: AMES SALMONELLA TYPHIMURIUM, Strain/Indicator: TA97, Metabolic Activation: NONE, Method: STANDARD PLATE) is reported as “active; positive” and the mutagenic call (Test System: AMES SALMONELLA TYPHIMURIUM, Strain/Indicator: TA97, Metabolic Activation: RAT, LIVER, S-9, AROCLOR 1254, Method: PREINCUBATION) is reported as “inactive; negative”. For the same compound, the mutagenic call (Test System: AMES SALMONELLA TYPHIMURIUM, Strain/Indicator: TA97, Metabolic Activation: RAT, LIVER, S-9, AROCLOR 1254, Method: STANDARD PLATE) was “active; positive”, the mutagenic call [1] was “inactive; negative” and the mutagenic call (Test System: AMES SALMONELLA TYPHIMURIUM, Strain/Indicator: TA98, Metabolic Activation: RAT, LIVER, S-9, AROCLOR 1254, Method: PREINCUBATION) was “inactive; negative”. The mutagenic call [2] was “inactive; negative”, the mutagenic call [3] was “inactive; negative” and the mutagenic call [4] was “inactive; negative”. For the same compound, the mutagenic call (Test System: AMES SALMONELLA TYPHIMURIUM, Strain/Indicator: TA100, Metabolic Activation: RAT, LIVER, S-9, AROCLOR 1254, Method: PREINCUBATION) was “inactive; negative”, the mutagenic call [5] was “inactive; negative” and the mutagenic call (Test System: AMES SALMONELLA TYPHIMURIUM, Strain/Indicator: TA102, Metabolic Activation: NONE, Method: PREINCUBATION) was “inactive; negative”. The mutagenic call (Test System: AMES SALMONELLA TYPHIMURIUM, Strain/Indicator: TA102, Metabolic Activation: RAT, LIVER, S-9, AROCLOR 1254, Method: PREINCUBATION) was “inactive; negative”, the mutagenic call [6] was “inactive; negative” and the mutagenic call (Test System: AMES SALMONELLA TYPHIMURIUM, Strain/Indicator: TA104, Metabolic Activation: RAT, LIVER, S-9, AROCLOR 1254, Method: PREINCUBATION) was “inactive; negative”. For the same compound, the mutagenic call [7] was “inactive; negative”, the mutagenic call (Test System: AMES SALMONELLA TYPHIMURIUM, Strain/Indicator: TA1535, Metabolic Activation: RAT, LIVER, S-9, AROCLOR 1254, Method: PREINCUBATION) was “inactive; negative” and the mutagenic call [8] was “inactive; negative”. The mutagenic call (Test System: AMES SALMONELLA TYPHIMURIUM, Strain/Indicator: TA1538, Metabolic Activation: RAT, LIVER, S-9, AROCLOR 1254, Method: STANDARD PLATE) was “inactive; negative”, the mutagenic call (Test System: CHINESE HAMSTER OVARY, Strain/Indicator: CHO-K1-BH4 (HGPRT), Metabolic Activation: NONE, Method: STANDARD PLATE) was “inactive; negative” and the mutagenic call (Test System: CHINESE HAMSTER V-79, Strain/Indicator: V-79 (HGPRT)/8-AZAGUANINE, Metabolic Activation: NONE) was “active; positive”. The mutagenic call (Test System: CHINESE HAMSTER V-79, Strain/Indicator: V-79/6-THIOGUANINE, Metabolic Activation: NONE) was “active; positive”, the mutagenic call (Test System: E. COLI, Strain/Indicator: WP2 UVRA, Metabolic Activation: NONE, Method: PREINCUBATION) was “inactive; negative” and the mutagenic call (Test System: E. COLI, Strain/Indicator: WP2 UVRA, Metabolic Activation: RAT, LIVER, S-9, AROCLOR 1254, Method: PREINCUBATION) was “inactive; negative”. For the same compound, the mutagenic call (Test System: UDS RODENT HEPATOCYTES, Strain/Indicator: THY INCORP (NON-S-PHASE), Metabolic Activation: NONE, Method: AUTORADIOGRAPHY) was “inactive; negative”.
`Cc1ccc(NS(=O)(=O)c2cccc3cccnc23)cc1` was tested, and the mutagenic call [9] was “inactive; negative”, the mutagenic call [2] was “inactive; negative” and the mutagenic call [4] was “inactive; negative”. The mutagenic call [5] was “inactive; negative”, the mutagenic call (Test System: AMES SALMONELLA TYPHIMURIUM, Strain/Indicator: TA1535, Metabolic Activation: NONE, Method: STANDARD PLATE) was “inactive; negative” and the mutagenic call [8] was “inactive; negative”. The mutagenic call (Test System: AMES SALMONELLA TYPHIMURIUM, Strain/Indicator: TA1537, Metabolic Activation: NONE, Method: STANDARD PLATE) was “inactive; negative” and the mutagenic call (Test System: AMES SALMONELLA TYPHIMURIUM, Strain/Indicator: TA1537, Metabolic Activation: RAT, LIVER, S-9, AROCLOR 1254, Method: STANDARD PLATE) was “inactive; negative”.
With `C=C1C(=O)O[C@@H]2C[C@]3(C)[C@@H](CCC(C)=O)[C@@H]3C[C@H]12` the mutagenic call (Test System: AMES SALMONELLA TYPHIMURIUM, Strain/Indicator: TA104, Metabolic Activation: NONE, Method: STANDARD PLATE) was “inactive; negative” and the mutagenic call (Test System: AMES SALMONELLA TYPHIMURIUM, Strain/Indicator: TA104, Metabolic Activation: RAT, LIVER, S-9, Method: STANDARD PLATE) was “inactive; negative”.
In the case of `COc1cc2nc3cc(N)c(OC)cc3nc2cc1N`, the mutagenic call (Test System: AMES SALMONELLA TYPHIMURIUM, Strain/Indicator: TA98, Metabolic Activation: S-9, Method: SUSPENSION/PLATE) is reported as “active; positive”.
In the case of `CNC(=O)NC`, the mutagenic call [1] is reported as “inactive; negative”, the mutagenic call (Test System: AMES SALMONELLA TYPHIMURIUM, Strain/Indicator: TA98, Metabolic Activation: RAT, LIVER, S-9, AROCLOR 1254 (5, 15 OR 30%), Method: PREINCUBATION) is reported as “inactive; negative” and the mutagenic call [3] is reported as “inactive; negative”. The mutagenic call (Test System: AMES SALMONELLA TYPHIMURIUM, Strain/Indicator: TA100, Metabolic Activation: RAT, LIVER, S-9, AROCLOR 1254 (5, 15 OR 30%), Method: PREINCUBATION) was “inactive; negative”, the mutagenic call [6] was “inactive; negative” and the mutagenic call (Test System: AMES SALMONELLA TYPHIMURIUM, Strain/Indicator: TA104, Metabolic Activation: RAT, LIVER, S-9, AROCLOR 1254 (5, 15 OR 30%), Method: PREINCUBATION) was “inactive; negative”. For the same compound, the mutagenic call (Test System: MOUSE LYMPHOMA, Strain/Indicator: L5178Y (TK+/TK-), Metabolic Activation: NONE, Method: SUSPENSION/PLATE) was “inactive; negative” and the mutagenic call (Test System: MOUSE LYMPHOMA, Strain/Indicator: L5178Y (TK+/TK-), Metabolic Activation: RAT, LIVER, S-9, AROCLOR 1254, Method: SUSPENSION/PLATE) was “inactive; negative”.
`CC(=O)c1ccc(N=O)cc1` was tested, and the mutagenic call [9] was “active; positive”, the mutagenic call [2] was “active; positive” and the mutagenic call [4] was “active; positive”. For the same compound, the mutagenic call [5] was “inactive; negative”.
With `O=[N+]([O-])c1ccc(/C=C/c2ccc([N+](=O)[O-])cc2S(=O)(=O)O)c(S(=O)(=O)O)c1` the mutagenic call [1] was “inactive; negative”, the mutagenic call (Test System: AMES SALMONELLA TYPHIMURIUM, Strain/Indicator: TA98, Metabolic Activation: RAT LIVER S-9, PHENOBARBITAL AND BETA-NAPHTHOFLAVONE, Method: PREINCUBATION) was “inactive; negative” and the mutagenic call [3] was “inactive; negative”. The mutagenic call (Test System: AMES SALMONELLA TYPHIMURIUM, Strain/Indicator: TA100, Metabolic Activation: RAT LIVER S-9, PHENOBARBITAL AND BETA-NAPHTHOFLAVONE, Method: PREINCUBATION) was “inactive; negative”, the mutagenic call [7] was “inactive; negative” and the mutagenic call (Test System: AMES SALMONELLA TYPHIMURIUM, Strain/Indicator: TA1535, Metabolic Activation: RAT LIVER S-9, PHENOBARBITAL AND BETA-NAPHTHOFLAVONE, Method: PREINCUBATION) was “inactive; negative”. The mutagenic call (Test System: AMES SALMONELLA TYPHIMURIUM, Strain/Indicator: TA1537, Metabolic Activation: NONE, Method: PREINCUBATION) was “inactive; negative”, the mutagenic call (Test System: AMES SALMONELLA TYPHIMURIUM, Strain/Indicator: TA1537, Metabolic Activation: RAT LIVER S-9, PHENOBARBITAL AND BETA-NAPHTHOFLAVONE, Method: PREINCUBATION) was “inactive; negative” and the mutagenic call (Test System: E.COLI, Strain/Indicator: WP2UVRA/PKM101, Metabolic Activation: NONE, Method: PREINCUBATION) was “inactive; negative”. For the same compound, the mutagenic call (Test System: E.COLI, Strain/Indicator: WP2UVRA/PKM101, Metabolic Activation: RAT LIVER S-9, PHENOBARBITAL AND BETA-NAPHTHOFLAVONE, Method: PREINCUBATION) was “inactive; negative”.
